Measured values: patent publication US20220127297A1, “Novel Antibacterial 3"-Derivatives Of 4,6-Disubstituted 2,5-Dideoxystreptamine Aminoglycoside Antibiotics” (AGILeBiotics B.V., priority 2018, published 2022)
≈ marks a conversion by molar mass, not a printed value. Like-named read-outs stand apart in the source and are kept apart here.

How the values were obtained:
[1] = tested on: clinical isolates of Vancomycin-resistant Enterococcus faecium (VRE); test: MIC determination at Fidelta, clinical isolates; assay type: cell-based
Text: (§1) 3.4.2 MIC Determination at Fidelta (Croatia)
(§2) Tested reference compounds. Amikacin sulfate (Cat. No. 01693, Chem-Impex), Gentamicin sulfate (Cat. No. G4918, Sigma Aldrich), Ceftazidime Pentahydrate (Cat. No. 1098130, USP), Meropenem (Cat. No. 1392454, USP), Tobramycin (Cat. No. 1667508, USP).
(§3) Microbial strains. Klebsiella pneumoniae KP-1919 (abdomen), Klebsiella pneumoniae KP-1935 (urine), Klebsiella pneumoniae KP-1936 (abscess), Klebsiella pneumoniae KP-1937 (blood), Klebsiella pneumoniae KP-1942 (urine), Klebsiella pneumoniae KP-1944 (blood), Klebsiella pneumoniae KP-2027 (tracheal aspirate), Klebsiella pneumoniae KP-2029 (urine), Klebsiella pneumoniae KP-2030 (trachea), Klebsiella pneumoniae KP-2031 (skin), Klebsiella pneumoniae KP-2032 (urine), Klebsiella pneumoniae KP-2033 (urine), Klebsiella pneumoniae KP-2034 (urine), Klebsiella pneumoniae KP-2035 (urine), Klebsiella pneumoniae KP-2036 (urine), Klebsiella pneumoniae KP-2037 (urine), Klebsiella pneumoniae ATCC 43816, Pseudomonas aeruginosa PA-1948 (wound), Pseudomonas aeruginosa PA-1949 (urine), Pseudomonas aeruginosa PA-1950 (sputum), Pseudomonas aeruginosa PA-1952 (wound), Pseudomonas aeruginosa PA-1953 (urine), Pseudomonas aeruginosa PA-1954 (sputum), Pseudomonas aeruginosa PA-1967 (blood), Pseudomonas aeruginosa ATCC27853, Acinetobacter baumannii AB-1931 (urine), Acinetobacter baumannii AB-1932 (urine), Acinetobacter baumannii AB-2017 (bronchial aspirate), Acinetobacter baumannii AB-2018 (skin), Acinetobacter baumannii AB-2019 (bronchial aspirate), Acinetobacter baumannii AB-1964 (blood), Acinetobacter baumannii AB-2025 (skin), Acinetobacter baumannii AB-2026 (skin), Acinetobacter baumannii ATCC17978, methicillin-resistant Staphylococcus aureus MRSA-1995 (liquor), methicillin-resistant Staphylococcus aureus MRSA-1998 (wound), methicillin-resistant Staphylococcus aureus MRSA-1999 (skin), methicillin-resistant Staphylococcus aureus MRSA-2003 (wound), vancomycin-resistant Enterococcus faecium VRE-2005 (urine), vancomycin-resistant Enterococcus faecium VRE-2006 (urine), vancomycin-resistant Enterococcus faecium VRE-2007 (urine), vancomycin-resistant Enterococcus faecium VRE-2008 (urine), vancomycin-resistant Enterococcus faecium VRE-2009 (urine), vancomycin-resistant Enterococcus faecium VRE-2010 (urine), vancomycin-resistant Enterococcus faecium VRE-2011 (rectum), vancomycin-resistant Enterococcus faecium VRE-2012 (rectum), vancomycin-resistant Enterococcus faecium VRE-2013 (rectum).
(§4) Culture media and equipment. BBL™ Mueller Hinton Broth (REF 275730, Lot. 7009699, Becton Dickinson); Mueller Hinton Agar 2 (Ref. No. 97580-500G-F, Lot. No. BCBV4646, Sigma); Cellstar, 96-well plates, U-bottom (Cat. No. 650180, Lot. No. E14123EB, Greiner Bio-one); 96-well deep well plate, 1 mL (Cat. No. 278606, Nunc); Incubator (Binder); Laminar flow (Thermo Scientific); BioPhotometer (Eppendorf); DEN-1B (McFarland Densitometer, Biosan); McFarland standards (polymer microparticle suspension, Biosan).
(§5) Compound preparation. For testing, 5 mg/mL DMSO solutions of the test compounds and reference antibiotics were used. Out of these DMSO solutions, 43.5 μL was transferred to 1656.5 μL of MH media in a deep well plate. Out of these working solutions 100 μL was transferred to wells in the third column of 96-well plates. Plates are previously filled with 50 μL of MH media in all wells except for the wells in the third column. After compound and antibiotic addition, 50 μL was transferred from the third to the fourth column, then from the fourth to the fifth and so on. In this manner, the compounds and antibiotics were plated in 96-well plate in serial two-fold dilutions giving a final concentration range of 64-0.125 μg/mL.
(§6) Inoculum preparation. Designations used for clinical isolates were from Fidelta strain collection bank. Microorganisms used were all revived from skim milk storage at −70° C. by plating them on MH agar plates.

[2] = tested on: clinical isolates of methicillin-resistant Staphylococcus aureus (MRSA); test: MIC determination at Fidelta, clinical isolates; assay type: cell-based
Text: as §1, §2, §3, §4, §5, §6

[3] = tested on: clinical isolates of multidrug-resistant Klebsiella pneumoniae (and ATCC43816); test: MIC determination at Fidelta, clinical isolates; assay type: cell-based; conditions: Klebsiella pneumoniae
Text: as §1, §2, §3, §4, §5, §6

[4] = tested on: Klebsiella pneumoniae ATCC 43816; test: Murine neutropenic thigh model of infection; assay type: in vivo, male CD-1 mice
Protocol: 4.1 Murine Neutropenic Thigh Model of Infection (Kiebsiella Pneumoniae ATCC 43816)
A comparator antibiotic (meropenem; Cat. No. 1392454, USP) was used during both studies.
During the first study ABX5006 and ABX5020 were tested at a dose of 64 mg/kg (group 5 for ABX5006, group 8 for ABX5020), 16 mg/kg (group 4 for ABX5006, group 7 for ABX5020) and of 4 mg/kg (group 3 for ABX5006, group 6 for ABX5020).
During a second study ABX5026 and ABX5039 were tested at a dose of 4 mg/kg (group 5 for ABX5026, group 8 for ABX5039), 1 mg/kg (group 4 for ABX5026, group 7 for ABX5039) and of 0.25 mg/kg (group 3 for ABX5026, group 6 for ABX5039).
Animals were dosed subcutaneously (10 mL/kg) twice with 8 h interval. […] A CFU count below limit of detection (LOD=1.0×10^2 CFU/mL) was substituted with the value 0 in order to perform statistical analysis.
Inoculum preparation for intramuscular infection. The strain was streaked out onto MH agar.

[5] = ATCC43816, KP-1919, Abdomen/VIM, ESBL
[6] = ATCC43816, KP-1935, Urine/ESBL, NDM
[7] = ATCC43816, KP-1936, Abscess/NDM
[8] = ATCC43816, KP-1937, Blood/VIM, ESBL
[9] = ATCC43816, KP-1942, Urine (catheter)/VIM
[10] = ATCC43816, KP-2027, Tracheal aspirate/ESBL, OXA-48, ColR
[11] = ATCC43816, KP-2029, Urine/ESBL, OXA-48
[12] = ATCC43816, KP-2030, Trachea/ESBL, OXA-48
[13] = ATCC43816, KP-2031, Skin/ESBL, OXA-48
[14] = ATCC43816, KP-2032, Urine/ESBL, OXA-48
[15] = ATCC43816, KP-2033, Urine/OXA-A8
[16] = ATCC43816, KP-2034, Urine/ESBL, OXA-48
[17] = ATCC43816, KP-2035, Urine/ESBL, OXA-48
[18] = ATCC43816, KP-2037, Urine/ESBL, OXA-48

For CC(C)(O/N=C(\C(=O)N[C@@H]1C(=O)N2C(C(=O)[O-])=C(C[n+]3ccccc3)CS[C@H]12)c1csc(N)n1)C(=O)O [Ceftazidime, reference compound], the MIC90 ([1]; VRE-2005, Urine) was over 64 µg/mL, the MIC90 ([1]; VRE-2006, Urine) was over 64 µg/mL and the MIC90 ([1]; VRE-2007, Urine) was over 64 µg/mL. For the same compound, the MIC90 ([1]; VRE-2008, Urine) was over 64 µg/mL, the MIC90 ([1]; VRE-2009, Urine) was over 64 µg/mL and the MIC90 ([1]; VRE-2010, Urine) was over 64 µg/mL. The MIC90 ([1]; VRE-2011, Rectum) was over 64 µg/mL, the MIC90 ([1]; VRE-2012, Rectum) was over 64 µg/mL and the MIC90 ([1]; VRE-2013, Rectum) was over 64 µg/mL. It also gave an MIC90 ([2]; MRSA-1995, Liquor) of over 64 µg/mL, an MIC90 ([2]; MRSA-1998, Wound) of over 64 µg/mL and an MIC90 ([2]; MRSA-1999, Skin) of over 64 µg/mL. The MIC90 ([2]; MRSA-2003, Wound) was over 64 µg/mL, the MIC90 ([3]; ATCC43816, K. pneumoniae ATCC43816 strain, read-out: MIC 90) was under 0.125 µg/mL and the MIC90 [3, 5] was 64 µg/mL (≈ 117 µM). For the same compound, the MIC90 [3, 6] was over 64 µg/mL, the MIC90 [3, 7] was over 64 µg/mL and the MIC90 [3, 8] was over 64 µg/mL. It also gave an MIC90 [3, 9] of over 64 µg/mL, an MIC90 ([3]; ATCC43816, KP-1944, Blood/NDM) of over 64 µg/mL and an MIC90 [3, 10] of over 64 µg/mL. The MIC90 [3, 11] was over 64 µg/mL, the MIC90 [3, 12] was over 64 µg/mL and the MIC90 [3, 13] was over 64 µg/mL. It also gave an MIC90 [3, 14] of over 64 µg/mL, an MIC90 [3, 15] of over 64 µg/mL and an MIC90 [3, 16] of over 64 µg/mL. For the same compound, the MIC90 [3, 17] was over 64 µg/mL, the MIC90 ([3]; ATCC43816, KP-2036, Urine/ESBL) was over 64 µg/mL and the MIC90 [3, 18] was over 64 µg/mL.

C[C@@H](O)[C@H]1C(=O)N2C(C(=O)O)=C(S[C@@H]3CN[C@H](C(=O)N(C)C)C3)[C@H](C)[C@H]12 [Meropenem, meropenem, reference compound] gave an MIC90 ([1]; VRE-2005, Urine) of over 64 µg/mL, an MIC90 ([1]; VRE-2006, Urine) of over 64 µg/mL and an MIC90 ([1]; VRE-2007, Urine) of over 64 µg/mL. It also gave an MIC90 ([1]; VRE-2008, Urine) of over 64 µg/mL, an MIC90 ([1]; VRE-2009, Urine) of over 64 µg/mL and an MIC90 ([1]; VRE-2010, Urine) of over 64 µg/mL. It also gave an MIC90 ([1]; VRE-2011, Rectum) of over 64 µg/mL, an MIC90 ([1]; VRE-2012, Rectum) of over 64 µg/mL and an MIC90 ([1]; VRE-2013, Rectum) of over 64 µg/mL. For the same compound, the MIC90 ([2]; MRSA-1995, Liquor) was 64 µg/mL (≈ 167 µM), the MIC90 ([2]; MRSA-1998, Wound) was 8 µg/mL (≈ 20.9 µM) and the MIC90 ([2]; MRSA-1999, Skin) was 64 µg/mL (≈ 167 µM). For the same compound, the MIC90 ([2]; MRSA-2003, Wound) was 8 µg/mL (≈ 20.9 µM), the MIC90 ([3]; ATCC43816) was under 0.125 µg/mL and the MIC90 [3, 5] was 4 µg/mL (≈ 10.4 µM). For the same compound, the MIC90 [3, 6] was 32 µg/mL (≈ 83.4 µM), the MIC90 [3, 7] was over 64 µg/mL and the MIC90 [3, 8] was 32 µg/mL (≈ 83.4 µM). It also gave an MIC90 [3, 9] of 64 µg/mL (≈ 167 µM), an MIC90 ([3]; ATCC43816, KP-1944, Blood/NDM) of over 64 µg/mL and an MIC90 [3, 10] of 4 µg/mL (≈ 10.4 µM). For the same compound, the MIC90 [3, 11] was 4 µg/mL (≈ 10.4 µM), the MIC90 [3, 12] was 4 µg/mL (≈ 10.4 µM) and the MIC90 [3, 13] was 2 µg/mL (≈ 5.22 µM). For the same compound, the MIC90 [3, 14] was 2 µg/mL (≈ 5.22 µM), the MIC90 [3, 15] was 16 µg/mL (≈ 41.7 µM) and the MIC90 [3, 16] was 16 µg/mL (≈ 41.7 µM). For the same compound, the MIC90 [3, 17] was 2 µg/mL (≈ 5.22 µM), the MIC90 ([3]; ATCC43816, KP-2036, Urine/ESBL) was 16 µg/mL (≈ 41.7 µM) and the MIC90 [3, 18] was 2 µg/mL (≈ 5.22 µM). For the same compound, the “Change from vehicle group” value ([4]; Log CFU/g thigh, dose 100 mg/kg SC BID) was −4.56, the “Avg. Log CFU/g thigh” value ([4]; dose 100 mg/kg SC BID, 24 h post infection) was 4.95 Log CFU/g and the “Change from vehicle group” value ([4]; dose 100 mg/kg, SC, BID, Avg. Log CFU/g thigh vs vehicle) was 8.17. The “Avg. Log CFU/g” value ([4]; dose 100 mg/kg, SC, BID, thigh, 24 hours post infection) was 1.61 Log CFU/g and the survival rate ([4]; first study, vehicle group 50% mortality) was 100%.
